Read-outs that look alike come from different tables or passages of the source. Values belong to the compound of their own block, whether it stands above or below them.
Columns and labels:
Human FXIa = Human FXIa (Homo sapiens, UniProt P03951); test: In vitro activated factor XI (FXIa) inhibition test; type: biochemical; set-up: purchased Enzyme Research Laboratories
[1] = test system: Rabbit venous thrombus models; test: In vivo antithrombotic effect evaluation test using rabbit (arteriovenous shunt); details: prompt i.v. + continuous i.v.
Description: Rabbit venous thrombus models were prepared by a modification of the report of Wong et al. (Wong P C. et al., J. Pharmacol. Exp. Ther. 292: 351-357 (2000)). Male rabbits (JW, 2 to 4 kg) were anesthetized by the inhalation of isoflurane (ISOFLU®, manufactured by DS Pharma Animal Health Co., Ltd.) (introduced anesthesia: 4%, continuous anesthesia: 1.5 to 2.5%). A tracheostomy tube was inserted to each rabbit, which was then ventilated using a respirator. For the intravenous administration of a test drug and blood collection, catheters were inserted to the right femoral vein and the right femoral artery, respectively. An arteriovenous shunt filled with saline was inserted to the carotid artery and the jugular vein. The arteriovenous shunt was prepared by connecting Atom extension tubes (4Fr) having lengths of 15 cm and 13 cm to the artery side and the vein side, respectively, of a polyethylene tube (length: 60 cm, outside diameter: 11.1 mm, inside diameter: 7.9 mm). Also, 4-0 silk thread having a length of 5 cm was indwelled in the arteriovenous shunt. Blood was sent for 30 minutes from the carotid artery to the jugular vein via the arteriovenous shunt. The shunt was removed, and the weight of the silk thread covered with thrombus was measured. The weight of the silk thread measured before the experiment was subtracted from the measured weight, and the obtained value was used as a wet thrombus weight. One hour before the open of the arteriovenous shunt, the test drug or a vehicle was promptly intravenously administered (0.67 mL/kg) and then continuously intravenously administered (1 mL/kg/hr). The continuous injection was continued throughout the experiment. Further, an existing anticoagulant dabigatran (antithrombin drug) and rivaroxaban (FXa inhibitor) were tested as control drugs.
In order to measure aPTT of blood samples as an index for the intrinsic coagulation pathway, blood was collected before administration and immediately before cessation of blood flow, and plasma was prepared using 3.2% sodium citrate. After incubation at 37° C. for 6 minutes, an STA reagent Cephascreen (for aPTT assay; manufactured by Roche Diagnostics K.K.) was added in an amount equal thereto, and the mixture was further incubated for 4 minutes. STA calcium chloride (manufactured by Roche Diagnostics K.K.) was added in an amount equal thereto, and the time required for coagulation was measured.
In order to measure prothrombin time (PT) of blood samples as an index for the extrinsic coagulation pathway, blood was collected before administration and immediately before cessation of blood flow, and plasma was prepared using 3.2% sodium citrate. After incubation at 37° C. for 10 minutes, Neoplastin Plus (for PT assay; manufactured by Roche Diagnostics K.K.) was added in a double amount, and the time required for coagulation was measured.

[2] = test system: Rabbit nail bleeding models; test: Bleeding time evaluation test using rabbit nail bleeding model; type: in vivo; details: for Bleeding time: Experiment 1 (maximum 30 minutes), rabbit; for Bleeding time (fold-increase): Experiment 1, ratio to vehicle group average
Description: Rabbit nail bleeding models were prepared by a modification of the report of Wong et al. (Wong P C. et al., J. Thromb. Haemost. 7: 1313-1320 (2009)). Male rabbits (JW, 1.5 to 3.5 kg) were anesthetized by the inhalation of isoflurane (ISOFLU®, manufactured by DS Pharma Animal Health Co., Ltd.) (introduced anesthesia: 4%, continuous anesthesia: 2 to 3%).
For the intravenous administration of a test drug or a vehicle, an indwelling needle was inserted to the auricular vein, and the test drug or the vehicle was promptly intravenously administered (0.67 mL/kg) and then continuously intravenously administered (1 mL/kg/hr). One hour after the start of administration, three posterior toenails were cut and dipped in saline heated to approximately 37° C., and the bleeding time was measured. The bleeding time was defined as a time from the cutting to the arrest of bleeding, and an average value from the three nails was used. The measurement time was 30 minutes at the maximum for experiment 1 and 60 minutes at the maximum for experiment 2. In each experiment, if bleeding for 30 minutes or 60 minutes or longer was confirmed, the bleeding time was regarded as 30 minutes or 60 minutes.

[3] = Ester metabolism stability test: stability in human liver; type: in vitro ADME; details: 37° C., 20 minutes, with NADPH
Description: A reaction solution containing 5 μL of human liver S9 (manufactured by Sekisui XenoTech, LLC, 20 mg/mL) mixed with 20 μL of 500 mmol/L Kpi (pH 7.4), 40 μL of a 5 mmol/L aqueous solution of NADPH (manufactured by Oriental Yeast Co., Ltd.), and 133 μL of ion-exchange water was added to 2 μL of a DMSO solution containing a 100 μmol/L test substance, and the mixture was incubated at 37° C. for 20 minutes. After the incubation, the metabolic reaction was terminated by the addition of 600 μL of acetonitrile.

human plasma = test: Ester metabolism stability test: stability in human plasma; type: in vitro ADME; details: 37° C., 20 minutes
Description: 198 μL of human plasma (manufactured by Cosmo Bio Inc.) was added to 2 μL of a DMSO solution containing a 100 μmol/L test substance, and the mixture was incubated at 37° C. for 20 minutes. After the incubation, the metabolic reaction was terminated by the addition of 600 μL of acetonitrile.

[4] = Ester metabolism stability test: metabolite identification by LC-MS
From the text: The metabolites were identified using LC (LC-Nexera X2 manufactured by Shimadzu Corp.)-MS (API4000 manufactured by AB Sciex Pte Ltd.).

[5] = dose 0.01 + 0.015 mg/kg + mg/kg/h
[6] = dose 0.03 + 0.045 mg/kg + mg/kg/h
[7] = dose 0.1 + 0.15 mg/kg + mg/kg/h
[8] = dose 0.03 + 0.045 mg/kg + mg/kg/h i.v.
[9] = dose 0.1 + 0.15 mg/kg + mg/kg/h i.v.
[10] = dose 0.3 + 0.45 mg/kg + mg/kg/h i.v.
[11] = metabolites identified using LC-MS
[12] = substrate S-2366, 37° C., 10 minutes, read-out: FXIa Inhibition activity IC50

Chain of Human FXIa (P03951 388-625 limits assumed): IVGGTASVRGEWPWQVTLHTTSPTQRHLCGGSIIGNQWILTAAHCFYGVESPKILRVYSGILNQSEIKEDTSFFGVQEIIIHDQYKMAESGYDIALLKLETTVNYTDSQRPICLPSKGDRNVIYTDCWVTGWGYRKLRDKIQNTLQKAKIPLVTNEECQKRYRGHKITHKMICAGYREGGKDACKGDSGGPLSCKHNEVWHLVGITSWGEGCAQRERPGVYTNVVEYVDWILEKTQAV
Chain of Human FXIa (P03951 19-387 partner limits assumed): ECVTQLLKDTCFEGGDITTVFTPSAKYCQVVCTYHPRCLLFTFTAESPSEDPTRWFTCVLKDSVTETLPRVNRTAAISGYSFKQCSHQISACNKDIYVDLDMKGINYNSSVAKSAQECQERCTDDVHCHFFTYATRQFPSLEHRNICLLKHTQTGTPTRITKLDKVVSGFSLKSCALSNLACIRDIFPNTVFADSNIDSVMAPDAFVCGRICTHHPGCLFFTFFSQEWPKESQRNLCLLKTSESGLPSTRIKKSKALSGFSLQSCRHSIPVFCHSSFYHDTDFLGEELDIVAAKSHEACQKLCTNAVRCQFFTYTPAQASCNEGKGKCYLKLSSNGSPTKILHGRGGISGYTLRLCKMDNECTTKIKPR

SMILES: N[C@H](CF)[C@H]1CC[C@H](C(=O)N2CC[C@@H](C3CCCCC3)[C@H]2C(=O)Nc2ccc3[nH]c(C(=O)O)c(Cl)c3c2)CC1 [compound 37]
- IC50 (Human FXIa): 18 nM

SMILES: CCCCCCOC(=O)NC(=N)c1ccc(NCc2nc3cc(C(=O)N(CCC(=O)OCC)c4ccccn4)ccc3n2C)cc1 [Dabigatran etexilate]
- PT (ratio) [1, 5]: 1.07 ± 0.02 ratio
- Thrombus weight [1, 5]: 62 ± 18 mg
- aPTT (ratio) [1, 5]: 1.28 ± 0.07 ratio
- PT (ratio) [1, 6]: 1.23 ± 0.10 ratio
- Thrombus weight [1, 6]: 32 ± 9 mg
- aPTT (ratio) [1, 6]: 1.58 ± 0.15 ratio
- PT (ratio) [1, 7]: 2.29 ± 0.29 ratio
- Thrombus weight [1, 7]: 12 ± 4 mg
- aPTT (ratio) [1, 7]: 2.34 ± 0.12 ratio
- Bleeding time [2, 8]: 1276 ± 353 s
- Bleeding time [2, 9]: 1800 ± 0 s
- Bleeding time [2, 10]: 1800 ± 0 s
- Bleeding time (fold-increase) [2, 8]: 2.7 ± 0.7 fold-increase
- Bleeding time (fold-increase) [2, 9]: 3.8 ± 0.0 fold-increase
- Bleeding time (fold-increase) [2, 10]: 3.8 ± 0.0 fold-increase

SMILES: CC1(C)OC(=O)c2cc3cc(NC(=O)[C@@H]4[C@H](c5ccccc5)CCN4C(=O)[C@H]4CC[C@H]([C@H](N)CF)CC4)ccc3n21.Cl [Example 19, (3S)-1-({trans-4-[(1S)-1-amino-2-fluoroethyl]cyclohexyl}carbonyl)-N-(3,3-dimethyl-1-oxo-1H-[1,3]oxazolo[3,4-a]indol-7-yl)-3-phenyl-L-prolinamide]
- Residual rate (%) Human liver S9 [3]: 93%
- Residual rate (%) Human plasma (human plasma): 15%
- Metabolite formed (conversion by metabolism) [4, 11]: Reference Example 19-1

- IC50 (Human FXIa; [12]): 3 nM
SMILES: NC[C@H]1CC[C@H](C(=O)N2CC[C@@H](C3CCCCC3)[C@H]2C(=O)Nc2ccc3[nH]c(C(=O)O)cc3c2)CC1 [Example 23]

SMILES: N[C@H](CF)[C@H]1CC[C@H](C(=O)N2CC[C@H](c3ccccc3)[C@H]2C(=O)Nc2ccc3[nH]c(C(=O)O)c(Cl)c3c2)CC1 [compound 45]
- IC50 (Human FXIa; [12]): 60 nM

- Residual rate (%) Human liver S9 [3]: >99%
- Residual rate (%) Human plasma (human plasma): 50%
- Metabolite formed (conversion by metabolism) ([4]; human, 20 min, 1 μmol/L): converted to the compound of Example 23
SMILES: CC1(C)OC(=O)c2cc3cc(NC(=O)[C@@H]4[C@H](C5CCCCC5)CCN4C(=O)[C@H]4CC[C@H](CN)CC4)ccc3n21.Cl [Example 17, (3S)-1-{[trans-4-(aminomethyl)cyclohexyl]carbonyl}-3-cyclohexyl-N-(3,3-dimethyl-1-oxo-1H-[1,3]oxazolo[3,4-a]indol-7-yl)-L-prolinamide]

- Residual rate (%) Human liver S9 [3]: 78%
- Residual rate (%) Human plasma (human plasma): 15%
- Metabolite formed (conversion by metabolism) ([4]; human, 20 min, 1 μmol/L): converted to the compound of Example 23
SMILES: Cl.NC[C@H]1CC[C@H](C(=O)N2CC[C@@H](C3CCCCC3)[C@H]2C(=O)Nc2ccc3c(c2)cc2n3C(CF)(CF)OC2=O)CC1 [Example 18]

SMILES: CO[C@H]1CC[C@H]([C@@H]2CCN(C(=O)[C@H]3CC[C@H]([C@H](N)CF)CC3)[C@@H]2C(=O)Nc2ccc3c(c2)cc2n3C(C)(C)OC2=O)CC1.Cl [Example 10, (3S)-1-({trans-4-[(1S)-1-amino-2-fluoroethyl]cyclohexyl}carbonyl)-N-(3,3-dimethyl-1-oxo-1H-[1,3]oxazolo[3,4-a]indol-7-yl)-3-(trans-4-methoxycyclohexyl)-L-prolinamide hydrochloride]
- Residual rate (%) Human liver S9 [3]: 98%
- Residual rate (%) Human plasma (human plasma): 6.7%
- Metabolite formed (conversion by metabolism) [4, 11]: converted to the compound of Example 24

- Residual rate (%) Human liver S9 [3]: 47%
- Residual rate (%) Human plasma (human plasma): <1%
- Metabolite formed (conversion by metabolism) ([4]; human, 20 min, 1 μmol/L): converted to the compound of Example 24
SMILES: CO[C@H]1CC[C@H]([C@@H]2CCN(C(=O)[C@H]3CC[C@H]([C@H](N)CF)CC3)[C@@H]2C(=O)Nc2ccc3c(c2)cc2n3C3(CCC3)OC2=O)CC1 [Example 14, (3S)-1-({trans-4-[(1S)-1-amino-2-fluoroethyl]cyclohexyl}carbonyl)-3-(trans-4-methoxycyclohexyl)-N-(1′-oxo-1′H-spiro[cyclobutane-1,3′-[1,3]oxazolo[3,4-a]indol]-7′-yl)-L-prolinamide]

SMILES: Cc1c(C(=O)O)[nH]c2ccc(NC(=O)[C@@H]3[C@H](C4CCCCC4)CCN3C(=O)[C@H]3CC[C@H]([C@H](N)CF)CC3)cc12 [compound 39]
- IC50 (Human FXIa; [12]): 145 nM

SMILES: NC(CF)[C@H]1CC[C@H](C(=O)N2CC[C@@H](c3ccc(F)cc3)[C@H]2C(=O)Nc2ccc3[nH]c(C(=O)O)cc3c2)CC1 (some centres unmarked) [compound 38]
- IC50 (Human FXIa; [12]): 30 nM

SMILES: NC(CF)[C@H]1CC[C@H](C(=O)N2CC[C@@H](C3CCCCC3)[C@H]2C(=O)Nc2ccc3[nH]c(C(=O)O)c(F)c3c2)CC1 (some centres unmarked) [Reference Example 36]
- IC50 (Human FXIa; [12]): 45 nM

- IC50 (Human FXIa; [12]): 19 nM
SMILES: N[C@H](CF)[C@H]1CC[C@H](C(=O)N2CC[C@@H](N3CCCCC3)[C@H]2C(=O)Nc2ccc3[nH]c(C(=O)O)cc3c2)CC1 [Example 25, 5-[(2S,3R)-1-({trans-4-[(1S)-1-Amino-2-fluoroethyl]cyclohexyl}carbonyl)-3-(piperidin-1-yl)pyrrolidine-2-carboxamide]-1H-indole-2-carboxylic acid 2-trifluoroacetate]

SMILES: N[C@H](CF)[C@H]1CC[C@H](C(=O)N2CC[C@H](c3ccc(F)cc3)[C@H]2C(=O)Nc2ccc3[nH]c(C(=O)O)cc3c2)CC1 [compound 44]
- IC50 (Human FXIa; [12]): 33 nM

SMILES: COc1ccc([C@H]2CCN(C(=O)[C@H]3CC[C@H]([C@H](N)CF)CC3)[C@@H]2C(=O)Nc2ccc3[nH]c(C(=O)O)cc3c2)cc1 [compound 43]
- IC50 (Human FXIa; [12]): 76 nM

- IC50 (Human FXIa; [12]): 91 nM
SMILES: CCc1c(C(=O)O)[nH]c2ccc(NC(=O)[C@@H]3[C@H](C4CCCCC4)CCN3C(=O)[C@H]3CC[C@H]([C@H](N)CF)CC3)cc12 [Reference Example 42]

SMILES: NC[C@H]1CC[C@H](C(=O)N2CC[C@@H](c3ccccc3)[C@H]2C(=O)Nc2ccc3[nH]c(C(=O)O)cc3c2)CC1 [compound 40]
- IC50 (Human FXIa; [12]): 9 nM

— patent US9718840B2, “Condensed 5-oxazolidinone derivative” (SUMITOMO DAINIPPON PHARMA CO., LTD., priority 2014, dated 2017)
